Measurements as given in patent US20230404995A1, “COMPOSITIONS AND METHODS FOR TREATING PULMONARY FIBROSIS” (priority 2020, published 2023).

Tests used:
[1] = system: WI-38 lung fibroblasts; experiment: TGF-β induced collagen production in WI-38 lung fibroblasts (immunofluorescent imaging); assay type: cell-based; conditions: serum starved WI-38, TGF-β 5 ng/ml, 48 hours, quinacrine 2.5 μM; FIG. 2D
Procedure: It is well established that during fibrotic diseases, fibroblasts and epithelial cells are transformed in myofibroblasts (mesenchymal cells), which secrete excess amount of extracellular matrix (ECM), one of the major components being interstitial collagen at the site of tissue injury. Serum starved WI-38 lung fibroblasts were activated with TGF-β (5 ng/ml; 48 hours), and QA's efficacy's in inhibiting collagen production due to transition of fibroblasts in collagen-secreting fibroblasts was tested.

[2] = system: HBE cells; experiment: TGF-β induced epithelial-mesenchymal transition (EMT) in HBE cells, cell imaging; assay type: cell-based, human; conditions: TGF-β 10 ng/mL, QA 0.5, 1, 2.5 and 5 μM tested, 24 and 48 hours, FIG. 4
Procedure: For TGF-β induced epithelial mesenchymal transition (EMT) images, HBE cells (50,000 cells/well) were seeded in a 6-well culture plate. Next day, all treatments (except the medium control) were starved with replacement of growth factor-absent media. After 24 hours incubation, the QA treatments were administered: 0.5, 1, 2.5, and 5 μM. Each treatment also included 10 ng/mL of TGF-β. The remaining 2 wells were treated with regular media and TGF-β as the negative control and positive control, respectively. Individual images of the cells were taken with an EVOS-FL Cell imaging fluorescence microscope (Thermo Fisher Scientific, Waltham, MA, USA) after 24 and 48 hours.
EMT is presented by morphological changes following TGF-beta treatment, and subsequent reversal with QA treatment.

[3] = system: WI-38 lung fibroblasts; experiment: Growth factor induced hyper-proliferation of WI-38 lung fibroblasts
[4] = system: A549 alveolar epithelial cells; experiment: TGF-β induced epithelial-mesenchymal transition (EMT) in A549 cells: morphology and E-cadherin expression
[5] = system: primary human bronchial epithelial (HBE) cells; experiment: Cell viability of HBE cells (Cell Titer Blue cell viability kit); assay type: cell-based; conditions: QA 0.039-10 μM, 24 hours, FIG. 3
Procedure: A cell viability study was carried out on HBE cells using Cell Titer Blue cell viability kit. Briefly, cells were treated with varying concentrations of QA (0.039-10 μM), for 24 hours, and media was used as a control. Fluorescence readings were taken at 540/590 nm using a Spark 10M Plate Reader (Tecan, Switzerland).

CCN(CC)CCCC(C)Nc1c2ccc(Cl)cc2nc2ccc(OC)cc12 (stereo not shown) [QA, quinacrine]
collagen expression [1]: significantly reduced | lowest concentrations that effectively inhibited TGF-beta induced EMT (morphological changes) [2]: 0.5-1 μM | FGF induced hyper-proliferation ([3]; WI-38, FGF 10 ng/ml, 72 hours, FIG. 2C): dose-dependent reduction | PDGF-BB induced hyper-proliferation ([3]; WI-38, PDGF-BB 10 ng/ml, 72 hours, FIG. 2B): dose-dependent reduction | fibroblast proliferation in the presence of TGF-β ([3]; WI-38, TGF-β 10 ng/ml, 48 hours, FIG. 2A): dose-dependent reduction | viability (cytotoxicity of the QA doses used) ([3]; WI-38 lung fibroblasts, all doses of QA used in the proliferation study): > 90% | E-cadherin expression, western blot (compared to β-actin) ([4]; A549 cells co-incubated with QA 2.5 μM and TGF-β 5 ng/ml, TGF-β alone gave 40% reduction, FIGS. 1C-D): completely restored | E-cadherin expression, immunofluorescence ([4]; A549 cells, TGF-β 5 ng/ml, 48 h, simultaneous QA 2.5 μM, FIG. 1B): restored | cell morphology, protection against TGF-β induced EMT ([4]; serum starved A549 cells, TGF-β 5 ng/ml with simultaneous QA 2.5 μM, FIG. 1A): reversing fibroblastic morphology induced by TGF-β treatment | cell viability [5]: > 85%
